Laboratory results reported in patent publication US12708630B2, “Combined therapy of 4′-thio-5-aza-2′-deoxycytidine and Venetoclax” (PINOTBIO, INC., priority 2021, dated 2026).

What was measured:
Test in all cases: drug activity profiling cytotoxicity
Format in all cases: cell-based
[1] = tested on: NCI-H747; details: Homo sapiens; NCI-H747 cell line, Colon; read-out: Aza-T-dCyd IC50
Summary of the method: (§1)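 Cell lines (200 in total) were exposed to Aza-T-dCyd, and cytotoxicity was profiled to support biomarker discovery.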

[2] = tested on: TCCSUP; details: Homo sapiens, TCC-SUP; TCCSUP cell line, Bladder; read-out: Aza-T-dCyd IC50
Summary of the method: as §1

[3] = tested on: U-118 MG; details: Homo sapiens; U-118 MG cell line, CNS (Glioma); read-out: Aza-T-dCyd IC50
Summary of the method: as §1

[4] = tested on: U-87 MG; details: Homo sapiens; U-87 MG cell line, CNS (Glioma); read-out: Aza-T-dCyd IC50
Summary of the method: as §1

[5] = tested on: UM-UC-3; details: Homo sapiens, UMUC3; UM-UC-3 cell line, Bladder; read-out: Aza-T-dCyd IC50
Summary of the method: as §1

[6] = tested on: KG-1; details: Homo sapiens; KG-1 cell line, AML; read-out: Aza-T-dCyd IC50
Summary of the method: as §1

[7] = tested on: Daoy; details: Homo sapiens; Daoy cell line, CNS (Medulloblastoma); read-out: Aza-T-dCyd IC50
Summary of the method: as §1

[8] = tested on: MCF7; details: Homo sapiens; MCF7 cell line, Breast; read-out: Aza-T-dCyd IC50
Summary of the method: as §1

[9] = tested on: Hs 746T; details: Homo sapiens, Hs746T; Hs 746T cell line, Stomach; read-out: Aza-T-dCyd IC50
Summary of the method: as §1

[10] = tested on: L-428; details: Homo sapiens; L-428 cell line, Hodgkin's lymphoma; read-out: Aza-T-dCyd IC50
Summary of the method: as §1

[11] = tested on: SKMES1; details: Homo sapiens, SK-MES-1; SKMES1 cell line, Lung (NSCLC); read-out: Aza-T-dCyd IC50
Summary of the method: as §1

[12] = tested on: A388; details: A388 cell line, Skin (Head and Neck); read-out: Aza-T-dCyd IC50
Summary of the method: as §1

[13] = tested on: SKO-007; details: SKO-007 cell line, B-cell myeloma; read-out: Aza-T-dCyd IC50
Summary of the method: as §1

[14] = tested on: AU565; details: Homo sapiens; AU565 cell line, Breast; read-out: Aza-T-dCyd IC50
Summary of the method: as §1

[15] = tested on: SK-MEL-3; details: Homo sapiens, SK-MEL3; SK-MEL-3 cell line, Skin (Melanoma); read-out: Aza-T-dCyd IC50
Summary of the method: as §1

[16] = tested on: NCIH441; details: Homo sapiens, NCI-H441; NCIH441 cell line, Lung (NSCLC); read-out: Aza-T-dCyd IC50
Summary of the method: as §1

[17] = tested on: 647-V; details: Homo sapiens; 647-V cell line, Bladder; read-out: Aza-T-dCyd IC50
Summary of the method: as §1

[18] = tested on: YAPC; details: Homo sapiens; YAPC cell line, Pancreas; read-out: Aza-T-dCyd IC50
Summary of the method: as §1

[19] = tested on: A431; details: Homo sapiens, A-431; A431 cell line, Skin (Head and Neck); read-out: Aza-T-dCyd IC50
Summary of the method: as §1

[20] = tested on: MDA MB 231; details: Homo sapiens; MDA MB 231 cell line, Breast; read-out: Aza-T-dCyd IC50
Summary of the method: as §1

[21] = tested on: MeWo; details: Homo sapiens; MeWo cell line, Skin (Melanoma); read-out: Aza-T-dCyd IC50
Summary of the method: as §1

[22] = tested on: SW982; details: Homo sapiens; SW982 cell line, Sarcoma; read-out: Aza-T-dCyd IC50
Summary of the method: as §1

[23] = tested on: SH-4; details: Homo sapiens; SH-4 cell line, Skin (Melanoma); read-out: Aza-T-dCyd IC50
Summary of the method: as §1

[24] = tested on: DMS114; details: Homo sapiens, DMS-114; DMS114 cell line, Lung (SCLC); read-out: Aza-T-dCyd IC50
Summary of the method: as §1

[25] = tested on: Capan-1; details: Homo sapiens; Capan-1 cell line, Pancreas; read-out: Aza-T-dCyd IC50
Summary of the method: as §1

[26] = tested on: A7; details: A7 cell line, Skin (Melanoma); read-out: Aza-T-dCyd IC50
Summary of the method: as §1

[27] = tested on: SCaBER; details: Homo sapiens; SCaBER cell line, Bladder; read-out: Aza-T-dCyd IC50
Summary of the method: as §1

[28] = tested on: SW620; details: Homo sapiens, SW-620; SW620 cell line, Colon; read-out: Aza-T-dCyd IC50
Summary of the method: as §1

[29] = tested on: CGTH-W-1; details: Homo sapiens; CGTH-W-1 cell line, Endocrine (Thyroid); read-out: Aza-T-dCyd IC50
Summary of the method: as §1

[30] = tested on: ChaGoK1; details: Homo sapiens, ChaGo-K-1; ChaGoK1 cell line, Lung (NSCLC); read-out: Aza-T-dCyd IC50
Summary of the method: as §1

`Nc1ncn([C@H]2CC(O)[C@@H](CO)S2)c(=O)n1` (stereo partly drawn) [Aza-T-dCyd, 4′-thio-5-aza-2′-deoxycytidine] was tested, and the IC50 [1] was 319 nM, the IC50 [2] was 1180 nM and the IC50 [3] was over 10000 nM. It also gave an IC50 [4] of 1640 nM, an IC50 [5] of 289 nM and an IC50 [6] of 461 nM. For the same molecule, the IC50 [7] was 3610 nM, the IC50 [8] was 6470 nM and the IC50 [9] was 666 nM. The IC50 [10] was 365 nM, the IC50 [11] was 314 nM and the IC50 [12] was 190 nM. It also gave an IC50 [13] of 4290 nM, an IC50 [14] of over 10000 nM and an IC50 [15] of 522 nM. For the same molecule, the IC50 [16] was 1300 nM, the IC50 [17] was 408 nM and the IC50 [18] was 1050 nM. It also gave an IC50 [19] of 256 nM, an IC50 [20] of 210 nM and an IC50 [21] of 1040 nM. For the same molecule, the IC50 [22] was 171 nM, the IC50 [23] was 698 nM and the IC50 [24] was 2200 nM. The IC50 [25] was 3320 nM, the IC50 [26] was 1190 nM and the IC50 [27] was 187 nM. The IC50 [28] was 234 nM, the IC50 [29] was 143 nM and the IC50 [30] was 3410 nM.
